Data taken from patent US8168199B2, “Dipeptidyl peptidase IV inhibitors for the treatment of schizophrenia and depression” (priority 2000, dated 2012).

Tested on: Male WistarF/Han (WF) rats
Experiment: Social interaction (SI) test of anxiety, i.c.v. P32/98 and NPY (Example 3)
Type: in vivo, rat
Conditions: i.c.v. 5 pmol-500 nmol
Procedure: Animals. […]
Animals were randomly divided into two sets of four experimental groups (n=5-6/group), which completed different consecutive SI test of anxiety. […] The time spent in active social interaction (SI-time), 1 h and 12 h food-intake were measured. […]
Social interaction (SI) test. […] Behavior was monitored using a video camera placed above the field inside the testing/isolation box. The SI behavior of both rats was recorded on-line from a monitor placed outside on top of the box. The following parameters were scored by an observer (HPN) unaware of the substrain of rats: duration of time spent in sniffing, following, crawling under and over other rats, but not passive body contact (resting, sleeping). […]
Statistical analysis. Data from repeated observations (food intake) were analyzed by two-way analyses of variance for repeated measures (ANOVA) (factors: “substrain” and “food intake” as repeated measure). […]

SMILES: CC[C@H](C)[C@H](N)C(=O)N1CCSC1 [P32/98]
- time spent in active social interaction (SI-time), P32/98 alone: “bell-shaped” dose-dependent anxiolytic-like effects
